Key:
C2C12 Cells = test: Glucose utilization in cultured C2C12 cells (myotubes); assay type: cell-based, mouse; conditions: glucose concentration in medium relative to untreated cells; 5 μM peptide, 22 h
Method in brief: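 Differentiated mouse myotubes (5 days in 2% horse serum) serum-starved 5 h, then treated 22 h at 37 °C with peptide at 5 μM final (0.1% DMSO) in low-glucose (1 g/L) DMEM. Glucose remaining in medium measured colorimetrically at 570 nm. Expressed as percent of untreated control, from 2–3 experiments in triplicate.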

3T3-L1 Mouse Adipocytes = test: Free fatty acid levels in cultured 3T3-L1 mouse adipocytes (isoproterenol stimulated); assay type: cell-based; conditions: free fatty acid in medium; 5 μM peptide, 20-22 h pre-incubation then 3 h with 0.1 nM isoproterenol; isoproterenol alone = 100%
Method in brief: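 3T3-L1 cells differentiated 12 days, insulin withdrawn, then peptides added on day 13 at 5 μM (0.1% DMSO) for 20-22 h at 37° C. After 3 h in assay buffer, medium free fatty acids read at 540 nm. Values expressed as percent of 0.1 nM isoproterenol-alone control.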

H4-IIE Cells = test: Glucose production in cultured H4-IIE cells; assay type: cell-based, rat; conditions: glucose concentration in medium relative to untreated cells; 5 μM peptide, 24 h
Method in brief: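 Rat H4-IIE hepatoma cells primed overnight in glucose-free DMEM with 2 mM pyruvate and 10 mM lactate, then treated 24 h at 37 °C with 5 μM peptide (0.1% DMSO; concentration assumes ~2000 Da). Medium glucose measured colorimetrically at 570 nm. Values are percent of untreated-cell glucose production; 0.5-1 nM insulin served as inhibitor reference.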

Substance	Percent of Control Activity (C2C12 Cells) [%]	Percent of Isoproterenol Control Activity (3T3-L1 Mouse Adipocytes) [%]	Percent of Control Activity (H4-IIE Cells) [%]
203 (KNIEAPLAW) [compound 203]	98	107	102
204 (RMGASIGSTTRLSTS) [compound 204]	95	111	107
205 (VQTVSISWASEMLVLVSFVVSV) [compound 205]	99	105	102
206 (SSSMMGEVASC) [compound 206]	99	95	106
207 (VVGSWCWSLSWVVGMR) [compound 207]	90	98	103
208 (CHWAGGASNTGDA) [compound 208]	89	103	107
209 (FAVSMMWSLE) [compound 209]	102	97	104
210 (MKVDATMDFT) [compound 210]	92	95	100
